Key:
Format in all cases: in vivo
[1] = test system: cotton aphids (Aphis gossypii); assay: Test method 1: spray on cucumber seedlings infested with cotton aphids (Formulation Example 1); conditions: 120 h, Test Example 1-1, spray 10 mL/seedling, 5 days after spraying, 25°C, read-out: control value
Method: (§1) Each test compound is formulated according to the method mentioned in Formulation Example 1 to obtain each formulation, and water containing 0.03% by volume of Shindaine (registered trademark) is added thereto to prepare a diluted solution containing a prescribed concentration of each test compound.
Approximately 30 cotton aphids (Aphis gossypii) (all stages of life) are released onto cucumber (Cucumis sativus) seedlings (on the developmental stage of the second true leaf) planted in a container. After 1 day, each of the diluted solutions is sprayed over the seedlings in a ratio of 10 mL/seedling. After additional 5 days, the number of the surviving insects is examined and the control value is calculated by the following equation. Control value (%) = {1−(Cb×Tai)/(Cai×Tb)} × 100 [formula] where symbols in the equation represent the following meanings: • Cb: Number of test insects in non-treated area; • Cai: Number of surviving insects at the time of the investigation in non-treated area; • Tb: Number of test insects in treated area; and • Tai: Number of surviving insects at the time of the investigation in treated area.
Here, the "non-treated area" represents an area where the same treatment procedure as that of the treated area is carried out except for not using each test compound.
The test was carried out by making the prescribed concentration 500 ppm and using the following present compounds as a test compound according to the test method 1.

[2] = test system: common cutworm (Spodoptera litura); assay: Test method 3: sprayed cabbage leaves, 2nd instar larvae of common cutworm (Formulation Example 1); conditions: 120 h, Test Example 3-1, spray 20 mL/seedling, after 5 days, 25°C
Method: as §1
(§2) Each of the diluted solutions is sprayed over cabbage (Brassicae oleracea) seedlings (on the developmental stage of the second to third true leaf) planted in a container in a ratio of 20 mL/seedling. Thereafter, the stem and leaf of the seedlings are cut out, and placed in a container lined with a filter paper. Five 2nd instar larvae of common cutworm (Spodoptera litura) are released into the container. After 5 days, the number of the surviving insects is counted, and the mortality of insects is calculated by the following equation. [formula]
The test was carried out by making the prescribed concentration 500 ppm and using the following present compounds as a test compound according to the test method 3.

[3] = test system: diamondback moth (Plutella xylostella); assay: Test method 4: sprayed cabbage leaves, 2nd instar larvae of diamondback moth (Formulation Example 1); conditions: 120 h, Test Example 4-1, spray 20 mL/seedling, after 5 days, 25°C
Method: as §1
as §2, with “diamondback moth (Plutella xylostella)” for “common cutworm (Spodoptera litura)”
The test was carried out by making the prescribed concentration 500 ppm and using the following present compounds as a test compound according to the test method 4.

[4] = test system: western corn rootworm (Diabrotica virgifera virgifera); assay: whole plant or invertebrate; conditions: 120 h
Method: Each test compound is dissolved in 50 µL of a mixed solution of polyoxyethylene sorbitan monococoate and acetone (at a volume ratio of 5:95) per 1 mg of the test compound. Water containing 0.03% by volume of Shindaine (registered trademark) is added thereto to prepare a diluted solution containing a prescribed concentration of each test compound.
Young seedlings of corns (Zea mays) are immersed in each of the diluted solutions for 30 seconds. Thereafter, two seedlings are placed in a petri dish (diameter: 90 mm), and ten 2nd instar larvae of western corn rootworm (Diabrotica virgifera virgifera) are released into the dish. After 5 days, the number of the […] is counted, and the mortality of insects is calculated by the following equation. Mortality (%) = (1−Numberofdeadinsects/10) × 100 [formula]
The test was carried out by making the prescribed concentration 200 ppm and using the following present compounds as a test compound according to the test method 5.

[5] = test system: German cockroach (Blattella germanica); assay: Test method 6: coated container contact test, German cockroach male adults; conditions: 72 h, read-out: mortality of insects
Method: An acetone solution prepared by making the concentration of the test compound 800 ppm is poured into a 50 mL container, and the inner face of the container is uniformly coated with the test compound so as to make the coating amount of 40 mg/m^2, followed by drying.
Five German cockroach (Blattella germanica) male adults are released into the container, and the container is then covered with a lid. After the prescribed time is elapsed, the state of the German cockroach are examined. The mortality of insects is calculated by the following equation. [formula]
The test was carried out by making the prescribed elapsed time 3 days and using the following present compounds as a test compound according to the test method 6.

[6] = test system: houseflies (Musca domestica); assay: Test method 8: coated container contact test, adult male houseflies; conditions: 24 h, read-out: mortality of insects
Method: An acetone solution prepared by making the concentration of the test compound 800 ppm is poured into a 20 mL container, and the inner face of the container is uniformly coated with the test compound so as to make the coating amount of 40 mg/m^2, followed by drying.
Five adult male houseflies (Musca domestica) are released into the container, and the container is then covered with a lid. After the prescribed time is elapsed, the state of the houseflies are examined. The mortality of insects is calculated by the following equation. [formula]
The test was carried out by making the prescribed elapsed time 1 day and using the following present compounds as a test compound according to the test method 8.

[7] = test system: common cutworm (Spodoptera litura); assay: Test method 9: sprayed cabbage seedlings, 3rd instar larvae of common cutworm (Formulation Example 5); conditions: 144 h, Test Example 9-1, spray 20 mL/seedling, after 6 days, 25°C
Method: (§3) Each test compound is formulated according to the method mentioned in Formulation Example 5 to obtain each formulation, and water containing 0.03% by volume of Shindaine (registered trademark) is added thereto to prepare a diluted solution containing a prescribed concentration of each test compound.
as §2, with “third” for “second”, “fourth” for “third”, “ten 3rd” for “the stem and leaf of the seedlings are cut out, and placed in a container lined with a filter paper. Five 2nd”, “6” for “5”, “counted” for “counted,”
The test was carried out by making the prescribed concentration 200 ppm and using the following present compounds as a test compound according to the test method 9.

[8] = test system: diamondback moth (Plutella xylostella); assay: Test method 10: sprayed cabbage seedlings, 3rd instar larvae of diamondback moth (Formulation Example 5); conditions: 120 h, spray 20 mL/seedling, after 5 days, 25°C; for mortality at 200 ppm: Test Example 10-1, 200 ppm; for mortality at 50 ppm: Test Example 10-2, 50 ppm
Method: as §3
Each of the diluted solutions is sprayed over cabbage (Brassicae oleracea) seedlings (on the developmental stage of the third to fourth true leaf) planted in a container in a ratio of 20 mL/seedling. Thereafter, ten 3rd instar larvae of diamondback moth (Plutella xylostella) are released into the container. After 5 days, the number of the surviving insects is counted, and the mortality of insects is calculated by the following equation. [formula]
The test was carried out by making the prescribed concentration 200 ppm and using the following present compounds as a test compound according to the test method 10.
The test was carried out by making the prescribed concentration 50 ppm and using the following present compounds as a test compound according to the test method 10.

[9] = test system: cotton aphids (Aphis gossypii); assay: whole plant or invertebrate; conditions: topical, 120 h, read-out: control value
Method: Each test compound is formulated according to the method mentioned in Formulation Example 5 to obtain each formulation, and water containing 0.03% by volume of […] (registered trademark) is added thereto to prepare a diluted solution containing a prescribed concentration of each test compound. Approximately thirty cotton aphids (Aphis gossypii) (all stages of life) are released onto cucumber (Cucumis sativus) seedlings (on the developmental stage of the second true leaf) planted in a container. After 1 day, each of the diluted solutions is sprayed over the seedlings in a ratio of 10 mL/seedling. After additional 5 days, the number of the surviving insects is examined and the control value is calculated by the following equation. Control value (%) = {1-(Cb×Tai)/(Cai×Tb)} × 100 [formula] where symbols in the equation represent the following meanings: • Cb: Number of test insects in non-treated area; • Cai: Number of surviving insects at the time of the investigation in non-treated area; • Tb: Number of test insects in treated area; and • Tai: Number of surviving insects at the time of the investigation in treated area. Here, the "non-treated area" represents an area where the same treatment procedure as that of the treated area is carried out except for not using each test compound. The test was carried out by making the prescribed concentration 200 ppm and using the following present compounds as a test compound according to the test method 11. […] The test was carried out by making the prescribed concentration 50 ppm and using the following present compounds as a test compound according to the test method 11.

[10] = test system: common house mosquito (Culex pipiens pallens); assay: Test method 12: final instar larvae of common house mosquito released into diluted solution; conditions: 24 h, read-out: control value
Method: Each test compound is formulated according to the method mentioned in Formulation Example 1 to obtain each formulation, and water is added thereto to prepare a diluted solution containing a prescribed concentration of each test compound.
Thirty final instar larvae of common house mosquito (Culex pipiens pallens) are released into the diluted solution and, after 1 day, the state of the common house mosquito larvae is examined and the mortality of insects is calculated by the following equation. [formula]
The test was carried out by making the prescribed concentration 3.5 ppm and using the following present compounds as a test compound according to the test method 12.

Row | SMILES | mortality at 500 ppm [1] | mortality at 500 ppm [2] | mortality at 500 ppm [3] | mortality at 200 ppm [4] | mortality at 40 mg/m2, 40 mg/m2 [5] | mortality at 40 mg/m2, 40 mg/m2 [6] | mortality at 200 ppm [7] | mortality at 200 ppm [8] | mortality at 50 ppm [8] | mortality at 50 ppm [9] | mortality at 200 ppm [9] | mortality at 3.5 ppm [10]
1 | CNS(=O)(=O)c1c(-c2cnc(OCC(F)(F)C(F)(F)F)cn2)nc2ccc(Br)cn12 [compound 1] | ≥ 90% | ≥ 80% | ≥ 80% | ≥ 80% | ≥ 80% | ≥ 80% | ≥ 80% | ≥ 80% | ≥ 80% | ≥ 90% | ≥ 90% | ≥ 90%
2 | CCNS(=O)(=O)c1c(-c2cnc(OCC(F)(F)C(F)(F)F)cn2)nc2ccc(Br)cn12 [compound 2] | ≥ 90% | ≥ 80% | ≥ 80% | ≥ 80% | ≥ 80% | ≥ 80% | ≥ 80% | ≥ 80% | ≥ 80% | ≥ 90% | ≥ 90% | ≥ 90%
3 | CNS(=O)(=O)c1c(-c2ccc(OCC(F)(F)C(F)F)nn2)nc2ccc(I)cn12 [compound 3] | ≥ 90% | ≥ 80% | ≥ 80% | ≥ 80% | – | – | ≥ 80% | ≥ 80% | ≥ 80% | ≥ 90% | ≥ 90% | –
4 | CN(C)S(=O)(=O)c1c(-c2ccc(OCC(F)(F)C(F)F)nn2)nc2ccc(I)cn12 [compound 4] | ≥ 90% | ≥ 80% | ≥ 80% | – | – | – | ≥ 80% | ≥ 80% | ≥ 80% | – | – | –

— patent EP4603492A1, “SULFONAMIDE COMPOUND AND HARMFUL-ARTHROPOD-CONTROLLING COMPOSITION CONTAINING SAME” (Sumitomo Chemical Company, Limited, priority 2022, dated 2024)
